Test results: patent US10774051B2, “6-membered heterocyclic derivatives and pharmaceutical composition comprising the same” (Shionogi & Co., Ltd., priority 2015, dated 2020)

The compounds below were run against human P2X7 receptor (Homo sapiens, UniProt Q99572, R270H/Y155H) (assay: Evaluation of human P2X7 receptor inhibitory activity (Yo-Pro uptake, BzATP stimulation, FLIPR TETRA)). Conditions: 1321N1 cells stably expressing human P2X7 receptor; BzATP stimulation, Yo-Pro uptake; read-out: IC50 (antagonistic activity for the human P2X7 receptor).
Assay type: cell-based
Outline: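 Yo-Pro dye uptake triggered by BzATP was monitored by FLIPR in human P2X7-transfected 1321N1 cells (SNP variant) in HEPES-buffered HBSS, pH 7.4-7.5. Compound was dispensed 8 min post-stimulation, then signal read for 20 min; IC50 derived logistically from inhibition of the fluorescence range.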
For `Cc1ccc(N2CCCS2(=O)=O)cc1Nc1nc(=O)c(F)cn1Cc1ccc(F)cc1` [Compound I-0207], the IC50 was 9 nM.
`COc1cn(Cc2ccc(F)c(Cl)c2)c(Nc2cccc3occc23)nc1=O` [Compound I-0636] showed an IC50 of 50 nM.
With `Cc1c(Cl)cccc1Nc1nc(=O)ccn1CCc1ccccc1` [Compound I-0055] the IC50 was 26 nM.
In the case of `COc1cn(Cc2cccc(C(F)(F)F)c2)c(Nc2cccc(Cl)c2C)nc1=O` [Compound I-0295], the IC50 is reported as 170 nM.
Work on `COc1cn(Cc2ccc(F)c(Cl)c2)c(Oc2cc(-c3ncco3)ccc2C)cc1=O` [Compound I-0965] yielded an IC50 of 440 nM.

Same assay, conditions: 1321N1 cells stably expressing human P2X7 receptor; BzATP stimulation, Yo-Pro uptake; read-out: IC50 (antagonistic activity for the human P2X7 receptor), class symbol
In the case of `COc1cc(Nc2nc(=O)c(OC)cn2Cc2cccc(Cl)c2)c(C)cc1Cl` [Compound I-0534], the IC50 is reported as less than 10 nM.
In the case of `COc1cn(Cc2ccc(F)c(Cl)c2)c(Nc2cc3[nH]ncc3cc2C)nc1=O` [Compound I-0492], the IC50 is reported as less than 10 nM.
In the case of `CCc1ccc(Cl)cc1Nc1nc(=O)c(OC)cn1Cc1ccccc1` [Compound I-0175], the IC50 is reported as 10 to 100 nM.
`Cc1c(Cl)cccc1Nc1nc(=O)c(C(=O)N(C)C)cn1Cc1ccccc1` [Compound I-0100] gave an IC50 of 100 to 500 nM.
For `COc1cn(Cc2cc(F)cc(F)c2)c(Nc2cc(S(C)(=O)=O)c(C)cc2C)nc1=O` [Compound I-0551], the IC50 was 10 to 100 nM.
Compound `COc1cn(Cc2cccc(Cl)c2)c(Nc2cccc(N(C)C)c2C)nc1=O` [Compound I-0432] has an IC50 of 10 to 100 nM.
`COc1cn(Cc2cc(F)cc(F)c2)c(Nc2cc(-c3ncco3)ccc2C)nc1=O` [Compound I-0554] was tested, and the IC50 was 10 to 100 nM.
With `COc1cn(Cc2ccccc2)c(Nc2ccc(Cl)cc2C)nc1=O` [Compound I-0072] the IC50 was 10 to 100 nM.
In the case of `COc1cn(Cc2ccccc2)c(Nc2cc(C(C)(C)C)ccc2C)nc1=O` [Compound I-0500], the IC50 is reported as 10 to 100 nM.
Work on `Cc1cc(C)c(Nc2nc(=O)c(Cl)cn2Cc2ccccc2)cc1C` [Compound I-0307] yielded an IC50 of less than 10 nM.
`COc1cn(Cc2ccccc2)c(Nc2cccc(-n3cccc3)c2C)nc1=O` [Compound I-0091] gave an IC50 of 100 to 500 nM.
For `Cc1ccc(-c2nnco2)cc1Nc1nc(=O)c(F)cn1Cc1ccc(F)c(F)c1` [Compound I-0380], the IC50 was 10 to 100 nM.
With `COc1cn(Cc2ccc(F)cc2)c(Nc2cc(C)c(F)cc2C)nc1=O` [Compound I-0443] the IC50 was less than 10 nM.
Work on `COc1cn(Cc2ccccc2)c(Nc2cc(C)c(C)cc2C)nc1=O` [Compound I-0124] yielded an IC50 of less than 10 nM.
Work on `CCc1ccccc1Nc1nc(=O)c(F)cn1Cc1cccc(Cl)c1` [Compound I-0223] yielded an IC50 of 10 to 100 nM.
In the case of `COc1cn(Cc2ccccc2)c(Nc2cccc3c2CCNC3)nc1=O` [Compound I-0050], the IC50 is reported as 500 to 1000 nM.
`COc1cn(Cc2cccc(F)c2)c(Nc2cc3sc(C)nc3cc2C)nc1=O` [Compound I-0559] was tested, and the IC50 was 10 to 100 nM.
For `COc1cn(Cc2cc(C)cc(F)c2)c(Nc2cccc(Cl)c2C)nc1=O` [Compound I-0450], the IC50 was 10 to 100 nM.
`COc1cn(Cc2ccccc2)c(NC2CCc3ccccc32)nc1=O` (stereo not shown) [Compound I-0073] was tested, and the IC50 was 500 to 1000 nM.
In the case of `CCc1ccc(Nc2nc(=O)c(OC)cn2Cc2ccccc2)c(CC)c1` [Compound I-0210], the IC50 is reported as 10 to 100 nM.
`Cc1c(Cl)cccc1Nc1nc(=O)c(C(=O)OC(C)(C)C)cn1Cc1ccccc1` [Compound I-0111] was tested, and the IC50 was 100 to 500 nM.
In the case of `CCc1ccccc1Nc1nc(=O)c(OC)cn1Cc1ccc(Cl)c(F)c1` [Compound I-0225], the IC50 is reported as 100 to 500 nM.
With `COc1cn(Cc2ccccc2)c(Nc2cccc(SC)c2C)nc1=O` [Compound I-0429] the IC50 was less than 10 nM.
`COc1cccc(Nc2nc(=O)c(OC)cn2Cc2cc(F)cc(Cl)c2)c1C` [Compound I-0509] gave an IC50 of less than 10 nM.
Compound `CCc1cc(OC)c(OC)cc1Nc1nc(=O)c(OC)cn1Cc1cccc(Cl)c1` [Compound I-0271] has an IC50 of less than 10 nM.
In the case of `COc1cn(Cc2cccc(Cl)c2)c(Nc2cc(-c3nnco3)ccc2C)nc1=O` [Compound I-0444], the IC50 is reported as 10 to 100 nM.
`CCc1cc2c(cc1Nc1nc(=O)c(OC)cn1Cc1cccc(Cl)c1)CCC2` [Compound I-0164] showed an IC50 of less than 10 nM.
`CCc1ccc(CC)c(Nc2nc(=O)c(OC)cn2Cc2ccccc2)c1` [Compound I-0211] gave an IC50 of less than 10 nM.
`COc1cn(Cc2ccccc2)c(Nc2cc(F)c(F)cc2C)nc1=O` [Compound I-0359] gave an IC50 of 500 to 1000 nM.
Work on `CNC(=O)Cc1cn(Cc2ccccc2)c(Nc2cccc(Cl)c2C)nc1=O` [Compound I-0330] yielded an IC50 of 100 to 500 nM.
`COc1cn(Cc2ccc(F)cc2)c(Nc2cccc(N(C)C)c2C)nc1=O` [Compound I-0401] was tested, and the IC50 was 10 to 100 nM.
`COc1ccccc1Cn1cc(OC)c(=O)nc1Nc1cccc(Cl)c1C` [Compound I-0054] gave an IC50 of 100 to 500 nM.
`CCc1cc(OC)c(OC)cc1Nc1nc(=O)c(OC)cn1Cc1ccc(F)c(F)c1` [Compound I-0272] was tested, and the IC50 was less than 10 nM.
`COc1cn(Cc2ccccc2)c(Nc2ccc(C)cc2C)nc1=O` [Compound I-0106] was tested, and the IC50 was 10 to 100 nM.
In the case of `COc1cn(Cc2ccc(F)c(Cl)c2)c(Nc2cc(C(C)C)ccc2C)nc1=O` [Compound I-0228], the IC50 is reported as 10 to 100 nM.

Same assay, conditions: antagonistic activity for the human P2X7 receptor; read-out: IC50
`COc1cc(C)c(Nc2nc(=O)c(C)cn2Cc2cc(F)c(F)c(F)c2)cc1OC` [Compound I-1153] showed an IC50 of less than 10 nM.
For `COc1ccc(Nc2nc(=O)cc(C)n2Cc2cc(F)c(F)c(F)c2)c(C)c1` [Compound I-1167], the IC50 was less than 10 nM.
`COc1cn(Cc2ccc(F)c(F)c2)c(Nc2cc(C(C)(C)O)ccc2C)nc1=O` [Compound I-0732] showed an IC50 of 10 to 100 nM.
`CCOc1ccc(Nc2nc(=O)c(F)cn2Cc2cc(F)cc(F)c2)c(C)c1` [Compound I-1047] was tested, and the IC50 was 10 to 100 nM.
With `Cc1cc2[nH]ccc2cc1Nc1nc(=O)c(F)cn1Cc1ccc(F)c(Cl)c1` [Compound I-1042] the IC50 was less than 10 nM.
`COc1cn(Cc2cc(F)cc(F)c2)c(Nc2cccc3[nH]c(C)cc23)nc1=O` [Compound I-0598] was tested, and the IC50 was 10 to 100 nM.
`COc1cn(Cc2ccccc2)c(Nc2ccc(N(C)C)cc2C)nc1=O` [Compound I-0622] gave an IC50 of 10 to 100 nM.
`COc1ccc(Nc2nc(=O)c(F)cn2Cc2cc(F)c(F)c(F)c2)c(C)c1F` [Compound I-1245] showed an IC50 of less than 10 nM.
Compound `CCc1cc(OC)c(OC)cc1Nc1nc(=O)c(OC)cn1Cc1cc(F)c(F)c(F)c1` [Compound I-0908] has an IC50 of less than 10 nM.
With `CCc1ccc(OC)cc1Nc1nc(=O)c(OC)cn1Cc1cc(F)cc(F)c1` [Compound I-0637] the IC50 was less than 10 nM.
`Cn1ccc2c(Nc3nc(=O)c(F)cn3Cc3cc(F)c(F)c(F)c3)cccc21` [Compound I-1018] gave an IC50 of less than 10 nM.
`COc1cccc(Nc2nc(=O)c(OC)cn2Cc2ccc(F)cc2)c1C` [Compound I-0661] gave an IC50 of less than 10 nM.
Work on `COc1cn(Cc2ccc(F)c(F)c2)c(Nc2cc(-n3cccc3)ccc2C)nc1=O` [Compound I-0653] yielded an IC50 of less than 10 nM.
For `COc1cc(C)c(Nc2nc(=O)c(OC)cn2Cc2cc(F)cc(F)c2)cc1Cl` [Compound I-0617], the IC50 was less than 10 nM.
In the case of `COc1ccc(Cl)c(Nc2cc(=O)c(OC)cn2Cc2ccc(F)c(Cl)c2)c1` [Compound I-0955], the IC50 is reported as 10 to 100 nM.
For `COc1ccc(Nc2nc(=O)c(Cl)nn2Cc2cc(F)c(F)c(F)c2)c(C)c1` [Compound I-1265], the IC50 was 10 to 100 nM.
`Cc1ccc(Nc2nc(=O)c(F)cn2Cc2cc(F)c(F)c(F)c2)c(Cl)c1` [Compound I-1184] was tested, and the IC50 was less than 10 nM.
Work on `Cc1cc(N(C)C)ccc1Nc1nc(=O)c(F)cn1Cc1cc(F)c(F)c(F)c1` [Compound I-1242] yielded an IC50 of less than 10 nM.
Work on `COc1cn(Cc2ccc(F)c(Cl)c2)c(Nc2cc(OC3CC3)ccc2C)nc1=O` [Compound I-0889] yielded an IC50 of less than 10 nM.
For `COc1ccc(C)cc1Nc1nc(=O)c(OC)cn1Cc1cc(F)c(F)c(F)c1` [Compound I-0936], the IC50 was 10 to 100 nM.
`COc1cn(Cc2ccccc2)c(Nc2cc(S(C)(=O)=O)cc(C)c2C)nc1=O` [Compound I-0754] showed an IC50 of 10 to 100 nM.
`Cc1cc2c(cc1Nc1nc(=O)c(C#N)cn1Cc1cc(F)c(F)c(F)c1)COC2` [Compound I-1130] showed an IC50 of 10 to 100 nM.
Compound `Cc1cc(C)c(Nc2nc(=O)c(F)cn2Cc2cc(F)c(F)c(F)c2)cc1C` [Compound I-1200] has an IC50 of less than 10 nM.
Work on `CCOc1ccc(C)c(Nc2nc(=O)c(OC)cn2Cc2cc(F)c(F)c(F)c2)c1` [Compound I-0862] yielded an IC50 of less than 10 nM.
Work on `COc1cn(Cc2ccc(F)c(Cl)c2)c(Nc2cc(C(C)(C)O)ccc2C)nc1=O` [Compound I-0775] yielded an IC50 of 10 to 100 nM.
For `COc1cc(Nc2nc(=O)c(OC)cn2Cc2ccc(F)c(F)c2)c(C)cc1F` [Compound I-0779], the IC50 was less than 10 nM.
`Cc1cc(Nc2nc(=O)c(F)cn2Cc2cc(F)cc(F)c2)c2cc[nH]c2c1` [Compound I-0705] gave an IC50 of less than 10 nM.
For `COc1cn(Cc2ccc(F)c(F)c2)c(Nc2cc(C)cc3[nH]ccc23)nc1=O` [Compound I-0645], the IC50 was 10 to 100 nM.
Compound `COc1cn(Cc2cc(F)cc(Cl)c2)c(Nc2cc(-n3cccc3)ccc2C)nc1=O` [Compound I-0654] has an IC50 of 10 to 100 nM.
In the case of `COc1cn(Cc2ccccc2)c(Nc2cc3c(cc2C)OC(F)(F)O3)nc1=O` [Compound I-0711], the IC50 is reported as 100 to 500 nM.
In the case of `COc1cn(Cc2ccc(F)c(Cl)c2)c(Nc2cc(OC(F)F)ccc2C)nc1=O` [Compound I-0871], the IC50 is reported as 10 to 100 nM.
Compound `COc1cc(Cl)c(Nc2nc(=O)c(C)cn2Cc2cc(F)c(F)c(F)c2)cc1OC` [Compound I-1139] has an IC50 of 10 to 100 nM.
`CCOC(=O)c1cn(Cc2cc(F)c(F)c(F)c2)c(Nc2cc(OC)c(F)cc2C)nc1=O` [Compound I-1122] was tested, and the IC50 was 10 to 100 nM.
`COc1cc(C)c(Nc2nc(=O)c(OC)cn2Cc2cc(F)cc(F)c2)cc1F` [Compound I-0721] showed an IC50 of less than 10 nM.
`Cc1ccc(S(C)(=O)=O)cc1Nc1nc(=O)ccn1Cc1cc(F)c(F)c(F)c1` [Compound I-1134] gave an IC50 of 10 to 100 nM.
For `COc1cn(Cc2cc(F)cc(Cl)c2)c(Nc2cc3ncccc3cc2C)nc1=O` [Compound I-0773], the IC50 was 100 to 500 nM.
`Cc1nc2[nH]ccc2cc1Nc1nc(=O)c(F)cn1Cc1cc(F)cc(F)c1` [Compound I-1016] showed an IC50 of 10 to 100 nM.
Compound `Cc1cc(OC(F)(F)F)ccc1Nc1nc(=O)c(F)cn1Cc1cc(F)cc(F)c1` [Compound I-1102] has an IC50 of 10 to 100 nM.
For `COc1cn(Cc2ccc(F)c(Cl)c2)c(Nc2cc(N3CCOCC3)ccc2C)nc1=O` [Compound I-0735], the IC50 was 10 to 100 nM.
